“And” between values parts separate entries of the source, which are not always exact repeats. Identical values can stand only once. Where no end group is shown, it is not given here.
Experiments:
male mice [1] = assay: Plasma insulin during glucose tolerance test; format: in vivo, mouse; settings: 1 mg/kg IP UCN2
Procedure: (§1) All metabolic tests were performed using standard protocols on male littermates (aged: 10–14 weeks). For glucose tolerance tests (GTTs), animals were fasted for 8 h with ad libitum access to water. Fasting glucose measurements were taken before […] oral glucose dose. Blood glucose measurements were taken via tail nick using the AlphaTRAK 2 Glucose Monitoring System (Zoetis, Parsippany-Troy Hills, NJ) at 10, 30, 60, and 120 min after dose. Blood was collected for insulin measurement in EDTA tubes (Becton, Dickinson and Company, Franklin Lakes, NJ) and centrifuged to collect plasma (2000 g for 10 min at 4 °C), which was stored at −80 °C until analysis at 10, 30, 60, and 120 min after dose. Insulin levels were measured using an Ultrasensitive Mouse Insulin ELISA (ALPCO, Salem, NH), according to manufacturer’s instructions. For insulin tolerance tests (ITTs), animals were fasted for 8 h and blood glucose was measured before (0 min) and at 30, 60, 90, and 120 min following IP injection of 0.75 IU/kg of insulin (Humulin R, Eli Lilly, Indianapolis, IN). […]

male mice [2] = assay: Insulin tolerance test (ITT), blood glucose; format: in vivo, mouse; design: dose or concentration left out as unconfirmed; settings: 0.05, 0.2
Procedure: as §1

[3] = tested on: heart, white adipose tissue; assay: In vivo glucose uptake, fluoro-deoxyglucose (FDG), heart and subcutaneous white adipose tissue; design: species or system mouse; settings: for Glucose Uptake Rate, subcutaneous white adipose tissue (FDG): individual animals (Fig. 2H), 1 mg/kg
Procedure: Mice were fasted 5 h, dosed IP with 1 mg/kg UCN2 or vehicle. 20 min after dosing mice were injected with 2 mg/kg fluoro-deoxyglucose (FDG) +/− 0.75 IU insulin via tail vein. 15 min after the FDG dose animals were anesthetized and tissues and blood were collected and snap frozen. Plasma and tissues were analyzed for FDG, FDG-monophosphate, glucose, and glucose-monophosphate. The quantification of the analytes was performed by liquid chromatography tandem mass spectrometry (LC-MS/MS) using selected reaction monitoring (SRM) on an Applied Biosystems SCIEX (Framingham, MA, USA) 5500 QTrap mass spectrometer operated in negative ionization mode. Chromatography was achieved on a Shimadzu (Kyoto, Japan) HPLC system under reversed phase LC conditions with gradient elution. Calibration standards were prepared in analyte-free matrix, while quality control samples were prepared in pooled tissue homogenate by standard addition. Experimental tissue samples were mechanically homogenized in a methanol solution followed by evaporation under nitrogen and resuspension with injection solvent prior to analysis on the LC-MS/MS system.

mouse soleus muscle = assay: Ex vivo soleus muscle [3H]2-deoxyglucose uptake
Procedure: Soleus muscle was removed from fed animals anesthetized by an intraperitoneal injection of pentobarbital (10 mg/100 g body weight). Dissected soleus muscles were suspended at 5 mN of tension in incubation chambers (Model 610/820 M, Danish Myo-Technology, Denmark) containing Krebs-Ringer-Buffer supplemented with 0.1% BSA, 2 mM pyruvate and 8 mM Mannitol. During the entire incubation period the KRB was maintained at 30 °C and oxygenated with 95% O2 and 5% CO2. Following 10 min of pre-incubation muscles were incubated in Krebs buffer +/− 100 nM (−7.0 log[M]) UCN2. At the next time point, 30 min later, muscles were placed in baths containing Krebs buffer +/− 100 nM (−7.0 [M]) UCN2. At the next time point, 15 min later, muscles were placed in baths containing Krebs buffer +/− 100 nM (−7.0 log[M]) UCN2 + /− 60 nM Insulin (Actrapid, Novo Nordisk, Bagsvaerd, Denmark) for 15 min. For the ex vivo glucose uptake studies, 1 mM [^3H]2-deoxyglucose (Perkin-Elmer) and 7 mM [^14C]mannitol (Perkin-Elmer) was also added at this time. Muscles that were in saline in the first bath, saline in the second bath, and saline in the third bath were assigned to the SSS group. Muscles that were in saline in the first bath, saline in the second bath, and UCN2 in the third bath were assigned to the SSU group. Muscles that were in UCN2 in the first bath, saline in the second bath, and UCN2 in the third bath were assigned to the USU group. Muscles that were in saline in the first bath, UCN2 in the second bath, and UCN2 in the third bath were assigned to the SUU group. Following incubation, muscles were harvested, washed in ice-cold KRB and immediately frozen in liquid nitrogen.
Glucose uptake was determined in muscle protein lysates by assessing the accumulation of [^3H]2-deoxyglucose with the use of [^14C]mannitol to correct for the extracellular space. Radioactivity was measured by liquid scintillation counting.

WT animals = assay: Blood glucose and plasma insulin 15 min after intraperitoneal UCN2; format: in vivo, mouse; settings: 1 mg/kg IP, 15 min post-dose; n = 5
Procedure: WT animals were injected IP with 1 mg/kg recombinant UCN2 or an equivalent volume of saline. Blood glucose and plasma insulin measurements were made pre-injection and 15 min post-dose. 20 min after the injection animals were euthanized and gastrocnemius muscle was dissected and snap-frozen in liquid nitrogen. The tissue was pulverized and homogenized in 700 ul SDS-buffer (0.1 M Tris/HCl 7.6, 4% SDS, 0.1 mM DTT), heated for 5 min at 95 °C and sonicated (Bioruptor®Plus Diagenode, 30 sec on-30sec off cycle for 10 cycles). After centrifugation for 10 min at 10,000 x g at 15 °C, the proteins in the supernatant were precipitated with 4X (volumes) ice-cold acetone (−20 °C) and stored at −20 °C overnight. The precipitates were centrifuged for 15 min at 10,000 × g, acetone was decanted, and the resulting pellets were dried for 10 min at room temperature. The pellet was resuspended in 500ul denaturing buffer (8 M urea and 10 mM Tris, pH 8.5) and sonicated (Bioruptor®Plus Diagenode, 30 s on-30 s off cycle for 5 cycles). The protein concentration was determined with a Bradford assay (Bio-Rad, Hercules, CA, USA). The proteins were reduced with dithiothreitol (DTT) 5 mM final concentration for 60 min at 37 °C and alkylated with iodoacetamide (8 mM final concentration) for 45 min at RT in the dark. […]

IVLSLDVPIGLLQILLEQARARAAREQATTNARILARVGHC-NH2 (C-terminus assumed) [UCN2, Urocortin 2]
plasma insulin levels during the oGTT versus vehicle (male mice [1]): No significant difference
effect of increasing doses in ITT (male mice [2]): decreasing rates of glucose uptake in response to insulin injection
insulin-stimulated glucose uptake in heart, WAT and SKM in vivo ([3]; 1 mg/kg IP UCN2, SKM by [3H]2DG): decreased insulin-stimulated glucose uptake
Glucose Uptake Rate, subcutaneous white adipose tissue (FDG) ([3]; UCN2 1 mg/kg IP +Insulin 0.75 IU): 0.1568 ng/g tissue/min and 0.1229 ng/g tissue/min and 0.1122 ng/g tissue/min and 0.1603 ng/g tissue/min and 0.108 ng/g tissue/min and 0.2201 ng/g tissue/min and 0.1273 ng/g tissue/min and 0.0896 ng/g tissue/min
Glucose Uptake Rate, subcutaneous white adipose tissue (FDG) ([3]; UCN2 1 mg/kg IP +Veh (no insulin)): 0.0619 ng/g tissue/min and 0.036 ng/g tissue/min and 0.07045 ng/g tissue/min and 0.06392 ng/g tissue/min and 0.06486 ng/g tissue/min and 0.04044 ng/g tissue/min and 0.02401 ng/g tissue/min and 0.1458 ng/g tissue/min
2DG Uptake (mouse soleus muscle; Fig 6C, UCN2 without insulin, individual muscles): 0.55 µmol/g/h and 1.85 µmol/g/h and 0.61 µmol/g/h and 0.24 µmol/g/h and 0.63 µmol/g/h
insulin-mediated glucose uptake, acute treatment ex vivo (mouse soleus muscle; soleus muscle, 100 nM UCN2, 60 nM insulin): sufficient to blunt insulin-mediated glucose uptake
insulin-mediated glucose uptake after UCN2 pre-treatment ex vivo (mouse soleus muscle; soleus muscle, 100 nM UCN2 pre-treatment (SUU, USU) versus acute (SSU)): increased insulin-mediated glucose uptake relative to acute UCN2 treatment
blood glucose levels after injection (WT animals): significantly increased blood glucose levels
plasma insulin after injection (WT animals): no significant difference

Source: PMC10319809, “Chronic UCN2 treatment desensitizes CRHR2 and improves insulin sensitivity” (Nature Communications, 2023)
